The values below come from the OPERA property sets (Mansouri et al. 2018).

Broadly, the logP is the decadic logarithm of the partition coefficient of the neutral form, usually between octanol and water. Lower therefore signals lower lipophilicity. For orientation: solubility means the dissolved amount per volume that the medium holds. A low value points to a poorly soluble substance. The logD is the decadic logarithm of the distribution of all forms, ionised or not, between an organic phase and buffer at a given pH. Lower therefore signals a more hydrophilic compound.

Structures are written as SMILES. Values after ≈ are worked out from the molar mass of the structure shown. Where a SMILES comes first, the peptide text is derived from it. The star is where a group is joined. NHtBu = CC(C)(C)N*

Details in one series: not given
On to `N#CCCCCCCCCC#N`, for which the logP is 1.75.
On the same count and under the same terms, with `CS(=O)(=O)c1cccc2ccccc12` the figure was 1.74; with `O=[N+]([O-])c1ccc2c(c1)CCN2`, 2.07; with `ClC1(Cl)C2(Cl)C3(Cl)C4(Cl)C(Cl)(Cl)C5(Cl)C3(Cl)C1(Cl)C5(Cl)C24Cl` (configuration not stated), 6.89.
On the same count and under the same terms, with `Cc1ccc(C=[N+]([O-])c2ccccc2)cc1` the figure was 2.41; with `CCCCOC(=O)c1ccccc1C(=O)OCc1ccccc1`, 4.73; with `CN(C)P(=O)(N1CCCC1)N1CCCC1`, 1.88.
The same measure, in the same setting: with `O=[N+]([O-])c1cc(Cl)cc(Cl)c1` the figure was 3.09.
With `Cn1ccc(=O)c(O)c1`, the logP was -0.7.
Consider `Nc1ccc(Cl)c(N)c1`, for which the logP stood at 0.85.
Same read-out and setting: with `Cc1ccc(OCCN(C)C)cc1` the figure was 2.17.
Still for that read-out and setting: with `CC1=C(C)C(=O)C=CC1=O` the figure was 1.23; with `CSCCCOc1ccc([N+](=O)[O-])cc1`, 3.24; with `CSc1nc(N)nc(C(Cl)(Cl)Cl)n1`, 3.12.
Same read-out and setting: the result for `CCN1CC=C(c2ccccc2)CC1` reads 3.18; that for `c1ccc2c(c1)Cc1cccnc1-2`, 2.96.
`Clc1ccc2c(Cl)c(Cl)c(Cl)c(Cl)c2c1`: the logP turned out to be 7.
Still for that read-out and setting: with `CC(O)COC(=O)[C@@H](N)Cc1ccc(O)c(O)c1` (some centres not stated) the figure was -0.49; with `O=C(O)c1cccnc1Nc1cccc(C(F)(F)F)c1`, 4.43.
Compound `O=C(O)CNC(=O)c1ccc(I)cc1` displayed a logP of 1.94.
On the same count and under the same terms, with `N[C@@H]1[C@H]2CN(c3nc4c(cc3F)c(=O)c(C(=O)O)cn4-c3ccc(F)cc3F)C[C@@H]12` the figure was 0.31.
The same measure, in the same setting: with `CC(=O)OCN1C(=O)C=C(C)C1=O` the figure was 0.45; with `CCCCCCCCOC(=O)c1ccc(N)cc1`, 5.02.
Still for that read-out and setting: with `ClC1=CC2(Cl)C3CC(Cl)C(Cl)C3C1(Cl)C2(Cl)Cl` (configuration not stated) the figure was 5.56; with `CCCCOCCNc1ccccc1C(N)=O`, 2.27.
`O=P(O)(O)CN(CP(=O)(O)O)CP(=O)(O)O`: the logP was -3.53.
Still for that read-out and setting: with `C=CCOc1ccccc1OCC(CNC(C)C)OC(=O)C(C)C` (configuration not stated) the figure was 3.77.
The same measure, in the same setting: the result for `CC(C)c1ccc(C=[N+]([O-])c2ccccc2)cc1` reads 3.37; that for `Clc1cc2c(Cl)ccc(Cl)c2cc1Cl`, 5.81; that for `C[C@@H]1CC[C@H](C)O1`, 1.22.
The same measure, in the same setting: with `CCOc1ccc([N+](=O)[O-])cc1NC(=O)CC` the figure was 1.85; with `CC(=O)O[C@@H]1C[C@H]2CC[C@]1(C)C2(C)C`, 4.3.
With `CCOC(=O)C(C)OC(=O)c1cc(Oc2ccc(C(F)(F)F)cc2Cl)ccc1[N+](=O)[O-]` (configuration not stated), the solubility turned out to be 0.000217 mM (≈ 0.1 µg/mL).
The compound `CC(C)C1(C)N=C(c2ncccc2C(=O)O)NC1=O` (configuration not stated) showed a logP of 0.22.
The same measure, in the same setting: the result for `OCC1CC(F)C(n2cnc3c(Cl)ncnc32)O1` (configuration not stated) reads 0.32; that for `CCC(C)C(NC(=O)c1cn(CC)c2nc(C)ccc2c1=O)C(=O)OC` (configuration not stated), 3.15.
Same read-out and setting: with `CC(Oc1ccc(Oc2ccc(C(F)(F)F)cn2)cc1)C(=O)O` (configuration not stated) the figure was 3.18; with `C=CCOc1ccccc1OCC(CNC(C)C)OC(=O)CCC` (configuration not stated), 3.95; with `CNC(=O)CCc1ccccc1`, 1.17.
Same read-out and setting: with `CCCOC(=O)[C@@H](N)Cc1ccc(O)c(O)c1` the figure was 0.76.
`N#CCCCC#N` displayed a logP of -0.72.
The same measure, in the same setting: with `Nc1c(Oc2ccccc2)c(Oc2ccccc2)c(N)c2c1C(=O)c1ccccc1C2=O` the figure was 5.19; with `Cc1cc(Cl)c(Cc2cc(Cl)ccc2Cl)cc1Cl`, 7.48; with `COc1c(Cl)c(Cl)cc(Cl)c1Cl`, 4.68.
On the same count and under the same terms, with `COc1cc(N=Nc2c(Br)cc([N+](=O)[O-])cc2[N+](=O)[O-])c(NC(C)=O)c(N(CCOC(C)=O)CCOC(C)=O)c1` the figure was 4.44.
Same read-out and setting: the result for `N[C@@H](Cc1ccc(O)c(O)c1)C(=O)OCCc1ccccc1` reads 1.76; that for `CC(=O)NC(C)C(=O)NC(CC(=O)O)C(=O)NC(C)(C)C` (stereo not drawn) (Ac-Ala-Asp-NHtBu; configuration not given here), -0.74.
Compound `O=C1NCCC2CNC(=O)C12` (configuration not stated) had a logP of -1.95.
Consider `CCOC(=O)C1CNC(=O)CC1C(=O)OCC` (configuration not stated), for which the logP was -0.03.
On the same count and under the same terms, with `CCOC1OC2OC3(C)CCC4C(C)C(O)CC(C1C)C24OO3` (configuration not stated) the figure was 2.14.
The same measure, in the same setting: with `CNC(=O)NCCn1nc(-c2ccccc2)ccc1=O` the figure was 0.39; with `CC(C)C(C#N)c1ccc([N+](=O)[O-])cc1` (configuration not stated), 2.8; with `ClCC1(C(Cl)Cl)C2CC(Cl)(Cl)C1(C(Cl)Cl)C(Cl)C2Cl` (configuration not stated), 5.96.
`Brc1cccc(O[Si]23OCCN(CCO2)CCO3)c1` gave a logP of 0.26.
For the compound `CC(C)NCC(O)c1ccc(NS(C)(=O)=O)cc1` (configuration not stated), the logP was 0.24.
Still for that read-out and setting: with `Cc1cnc2c(C(=O)O)c(Cl)ccc2c1` the figure was 0.78; with `COc1cccc(C=O)c1`, 1.71.
Still for that read-out and setting: the result for `c1ccc(CNc2[nH]cnc3ncnc2-3)cc1` reads 1.57.
For the compound `COP(=S)(OC)Oc1c(Cl)cccc1C#N`, the logP turned out to be 3.58.
On the same count and under the same terms, the result for `O=[N+]([O-])c1ccc2c(c1)Cc1cc([N+](=O)[O-])ccc1-2` reads 3.35; that for `O=C(CCl)N1CCOCC1`, -0.6.
Still for that read-out and setting: the result for `ClC1=C(Cl)C2(Cl)C(Cl)=C(Cl)C3CC1C(Cl)C32` (configuration not stated) reads 5.66; that for `CC(NC(CCc1ccccc1)C(=O)O)C(=O)N1C(C(=O)O)CC2CCCC21` (configuration not stated), 0.22; that for `ClCC1(CCl)C2CC(Cl)(Cl)C1(C(Cl)Cl)CC2(Cl)Cl` (configuration not stated), 5.79.
Still for that read-out and setting: the result for `CCCN1CCCC1CNC(=O)c1cc(S(N)(=O)=O)ccc1OC` (configuration not stated) reads 2.16.
Compound `Cc1cn(C2OC(CO)CC2F)c(=O)[nH]c1=O` (configuration not stated) registered a logP of -0.44.
Still for that read-out and setting: the result for `COc1cc(Cl)c(Cl)c(Cl)c1` reads 4.22.
Compound `O=C([O-])c1ccccc1.[Na+]` registered a solubility of 3860 mM.
For `CCCn1ccc(=O)c(O)c1`, the logP is -0.17.
The same measure, in the same setting: with `CCCCCCCCCC` the figure was 5.01.
On to `Cc1ccc(N)cc1C`, for which the logP was 1.84.
Same read-out and setting: the result for `COP(=S)(OC)Oc1ccccc1` reads 3.03.
The same measure, in the same setting: with `CCCC(C)C(=O)O` (configuration not stated) the figure was 1.8; with `Cc1ccc(C(C)C)c(Cl)c1Cl`, 5.5; with `CC(C)c1cccc(OP(=O)(Oc2ccccc2)Oc2ccccc2)c1`, 5.31.
`Cc1cccc(C)c1C` showed a solubility of 0.626 mM (≈ 75.2 µg/mL).
Compound `O=[N+]([O-])c1ccc(Cl)c([N+](=O)[O-])c1` gave a logP of 2.17.
Regarding `Cc1ccc2cc3ccccc3cc2c1`, the logP amounted to 5.

Still in this series, the particulars now being: 20 °C.
The compound `Nc1c(Cl)cc([N+](=O)[O-])cc1Cl` gave a solubility of 0.0338 mM (≈ 7 µg/mL).
The same measure, in the same setting: the result for `C=COC` reads 258 mM (≈ 15000 µg/mL).
The same measure, in the same setting: with `c1ccc(C2CO2)cc1` (configuration not stated) the figure was 25 mM (≈ 3000 µg/mL); with `CCCC(C)C(=O)O` (configuration not stated), 129 mM (≈ 15000 µg/mL).

The series is the same for the next values; noted with them: 22 °C.
Regarding `CCCCC(CC)COC(=O)CCCCC(=O)OCC(CC)CCCC` (configuration not stated), the solubility was determined as 0.0021 mM (≈ 0.78 µg/mL).
Still for that read-out and setting: the result for `CC(C)Nc1nc(Cl)nc(NC2CC2)n1` reads 0.303 mM (≈ 69 µg/mL).

Still in this series, the particulars now being: 23 °C.
`Clc1ccc(Cl)c(-c2ccc(Cl)c(Cl)c2)c1` showed a solubility of 0.000136 mM (≈ 0.0397 µg/mL).

The same series, now with this note: 23.0 °C.
For the compound `CCC(=O)C(O)CC` (configuration not stated), the log10 OH rate constant (cm³/molecule/s) was -10.8.
`CCOC(=O)C(C)O` (configuration not stated) yielded a log10 OH rate constant (cm³/molecule/s) of -11.4.

The series is the same for the next values; noted with them: 24 °C.
For the compound `COc1cc(C=O)cc(Cl)c1O`, the solubility came to 1.33 mM (≈ 249 µg/mL).

The series is the same for the next values; noted with them: 25 °C.
Turning to `Clc1ccc(-c2ccc(Cl)c(Cl)c2Cl)cc1Cl`, the solubility is 1.04e-05 mM (≈ 0.0034 µg/mL).
Still for that read-out and setting: with `CCCCN(CC)C(=O)SCCC` the figure was 0.492 mM (≈ 100 µg/mL); with `Oc1cc(Cl)cc(Cl)c1`, 27.6 mM (≈ 4500 µg/mL).
On the same count and under the same terms, the result for `O=C(O)c1ccc(C(=O)O)c(C(=O)O)c1` reads 99.9 mM (≈ 21000 µg/mL); that for `c1ccoc1`, 147 mM (≈ 10000 µg/mL).
Still for that read-out and setting: with `ClC1=C(Cl)[C@]2(Cl)[C@@H]3[C@@H]4C[C@@H]([C@H]5O[C@@H]45)[C@@H]3[C@@]1(Cl)C2(Cl)Cl` (single isomer, unassigned) the figure was 0.00058 mM (≈ 0.221 µg/mL); with `Clc1cccc(Cl)c1`, 0.85 mM (≈ 125 µg/mL); with `CCOC(=O)COc1ccc(Cl)cc1`, 3.8 mM (≈ 815 µg/mL).
`O=C(O)C1CCCCC1`: the solubility was determined as 35.9 mM (≈ 4600 µg/mL).
On the same count and under the same terms, the result for `CCCCOC(=O)c1ccccc1C(=O)OCc1ccccc1` reads 0.00861 mM (≈ 2.69 µg/mL); that for `O=P(Oc1ccccc1)(Oc1ccccc1)Oc1ccccc1`, 0.00582 mM (≈ 1.9 µg/mL); that for `COC(CN(C)C(=O)Nc1nnc(C(C)(C)C)s1)OC`, 13.6 mM (≈ 4100 µg/mL).
On the same count and under the same terms, the result for `CCOC=O` reads 1190 mM (≈ 88200 µg/mL); that for `N[C@@H]1[C@H]2CN(c3nc4c(cc3F)c(=O)c(C(=O)O)cn4-c3ccc(F)cc3F)C[C@@H]12`, 0.0295 mM (≈ 12.3 µg/mL); that for `Cc1ccccc1N`, 155 mM (≈ 16600 µg/mL).
On the same count and under the same terms, with `OCCNc1ccccc1` the figure was 335 mM (≈ 46000 µg/mL); with `O=NN(c1ccccc1)c1ccccc1`, 0.177 mM (≈ 35 µg/mL).
Regarding `COC`, the solubility amounted to 7660 mM (≈ 353000 µg/mL).
Same read-out and setting: the result for `O=C(O)CCCOc1cc(Cl)c(Cl)cc1Cl` reads 0.148 mM (≈ 42 µg/mL); that for `FC(F)(F)C(F)(Cl)Cl`, 0.801 mM (≈ 137 µg/mL).
On the same count and under the same terms, with `COC(C)(C)CC(C)=O` the figure was 2150 mM (≈ 280000 µg/mL); with `NNC(=O)c1ccncc1`, 1020 mM (≈ 140000 µg/mL); with `CCC(CO)(CO)COCC(CC)(CO)CO`, 104 mM (≈ 26000 µg/mL).
The same measure, in the same setting: with `CCCCO[N+](=O)[O-]` the figure was 9.4 mM (≈ 1120 µg/mL); with `CCCCCN(CCCCC)CCCCC`, 0.0928 mM (≈ 21.1 µg/mL); with `Clc1ccc(-c2ccccc2Cl)cc1`, 0.00524 mM (≈ 1.17 µg/mL).
Turning to `ClCOCCl`, the solubility is 191 mM (≈ 22000 µg/mL).

Still in this series, the particulars now being: 25.0 °C.
`FC(F)C(F)F` gave a log10 OH rate constant (cm³/molecule/s) of -14.2.
With `O=CF`, the log10 OH rate constant (cm³/molecule/s) is -14.4.
The same measure, in the same setting: with `c1ccc2[nH]ccc2c1` the figure was -9.81; with `CCCCBr`, -11.6.
On the same count and under the same terms, with `FC(F)(F)C(Cl)Br` (configuration not stated) the figure was -13.3; with `O=CC(F)(Cl)Cl`, -11.9.
Same read-out and setting: with `FC(F)(F)C(F)(F)N(C(F)(F)C(F)(F)F)C(F)(F)C(F)(F)F` the figure was under -15.2; with `O=C(O)C(F)(F)F`, -12.9; with `CCCCOCC=O`, -10.7.

The same series, now with this note: 27 °C.
As to `Cc1c2ccccc2cc2ccc3ccccc3c12`, the solubility was determined as 0.000272 mM (≈ 0.066 µg/mL). That is a sub-micromolar value.

Staying with this series, now noted: 27.0 °C.
As for `Cc1ccc(C=O)o1`, the log10 OH rate constant (cm³/molecule/s) was -10.3.

The series is the same for the next values; noted with them: pH 7.0.
`Cc1nn(-c2cc(NS(C)(=O)=O)c(Cl)cc2Cl)c(=O)n1C(F)F` registered a logD of 0.99.
